# In patent US20240408064A1, “RAS INHIBITORS, COMPOSITIONS AND METHODS OF USE THEREOF” (GENETOLEAD INC., priority 2021, published 2024):
# “Also recorded” adds a separate entry of the source.
# Legend:
# [1] = target: T1, HRas^G12V (Homo sapiens (Human), UniProt P01112, G12V); assay: Overall binding/activity in the various assays (NMR consensus binding)
# Method: (§1) Since the fragment library was curated using phosphate buffer, 25 mM sodium phosphate pH 7.4, 150 mM NaCl, 5 mM MgCl2, 1 mM TCEP-d16, 10% D2O Fresh TCEP was used for experiments. Screening was performed using ^1H-decoupled 1D ^19F experiment Bruker experiment (zgfhigqn.2) with 64 scans and a relaxation delay of 5 seconds. 50 μM HRas^G12V and 240 μM of each fragment in pools (mixtures) were used.
# (§2) Hit confirmation was performed using the same ^19F experiment as the screen. Ligand-observed 1D ^1H, protein-observed 1D ^1H, ^1H T2-CPMG as well as Saturation Transfer Difference (STD) experiments were also run on the same samples. Ligand-observed 1D ^1H was run using the standard Bruker sequence with excitation sculpting (zgesgp) with a relaxation delay of 10 seconds and 16 scans per spectrum. Protein-observed 1D ^1H was performed using the same sequence with a relaxation delay of 1 second and 256 scans in order to increase the signal-to-noise of the protein resonances, while keeping the experimental time relatively short. The ^1H T2-CPMG experiment employed a modified version of the Bruker 1D ^1H zgesgp experiment with the addition of a CPMG pulse train after the first 90° excitation pulse. Total duration for each spin echo was fixed at 1 ms (τ=500 μs), while the number of echoes in the pulse train was varied according to the total time (T). The number of scans for each spectrum was 4 and eight delay times were run on each sample, ranging from 1 ms to 800 ms.
# STD experiments consisted of two independent spectra with offsets of 0 ppm (on resonance) and −20 ppm (off resonance). […] 160 scans were acquired for each spectrum.
# The results obtained with the compounds in the various assays described above are depicted in Table 21.
# Because of its power to probe the intrinsically weak interactions (Kd) between targets and low-molecular weight fragments, NMR fragment-based lead discovery (FBLD) is a very useful biophysical method in early stage drug discovery, especially for challenging target proteins; including those with shallow binding pockets. Since FBLD screens are performed using low-molecular weight compounds (fragments) with lower structural complexity, the same chemical space can be covered using a smaller number of drug-like fragments versus use of large libraries of higher-molecular weight lead-like compounds as in high throughput screening (HTS) campaigns. Therefore, FBLD has a much higher hit rate than HTS using only several hundred to several thousand compounds in comparison with approximately 1 million compounds for HTS. Also, the small size of the compounds screened in FBLD means a better chance to fully match the interactions with small or transient pockets within the target protein, where these less tractable pockets cannot be accessed with standard classical HTS methods. […] We expect this methodology to be more advantageous than classical HTS methods for expediting the time from hit to lead (H2L) and allows for rapid access to high quality leads with lower attrition rates in subsequent lead optimization (LO) campaigns toward pre-clinical candidate selection. FBLD screening by NMR involves a “consensus binding” approach where several distinct NMR experiments (DLB, STD, CPMG) are applied along with a free-state aggregation detection method (T2-CPMG) to rank the compounds for their affinity to the receptor (HRAS in this case) whilst simultaneously monitoring the solution behavior and critical quality attributes of each compound. The latter helps to eliminate artifact binders which are highly problematic. We performed a fluorine screen involving 461 compounds that were derived from a highly curated fragment library. Moreover, two-dimensional ^15N HSQC NMR was also used to validate ligand-binding sites on the target protein. In addition, we employed protein-detected biophysical measurements were employed to determine fragment binding affinities to the target protein (Kd) by HSQC NMR. […]
# [2] = target: T1, HRas^G12V; assay: 19F DLB (ligand-observed 19F NMR) score; assay type: binding; set-up: scale not given here
# Method: (§3) All NMR experiments were collected using 3 mm NMR tubes on a 600 MHz Bruker Avance III spectrometer equipped with a QCI helium cryoprobe and a SampleJet sample changer. The buffer used for NMR experiments was 25 mM sodium phosphate pH 7.4, 150 mM NaCl, 5 mM MgCl2, 1 mM TCEP-d16, 10% D2O. Data were processed using Bruker TopSpin.
# as §1
# as §2, with “ms. […]” for “ms.”
# [3] = target: T1, HRas^G12V; assay: 19F T2-CPMG NMR score; assay type: binding
# Method: as §3, §1, §2
# Because of its power to probe the intrinsically weak interactions (Kd) between targets and low-molecular weight fragments, NMR fragment-based lead discovery (FBLD) is a very useful biophysical method in early stage drug discovery, especially for challenging target proteins; including those with shallow binding pockets. Since FBLD screens are performed using low-molecular weight compounds (fragments) with lower structural complexity, the same chemical space can be covered using a smaller number of drug-like fragments versus use of large libraries of higher-molecular weight lead-like compounds as in high throughput screening (HTS) campaigns. Therefore, FBLD has a much higher hit rate than HTS using only several hundred to several thousand compounds in comparison with approximately 1 million compounds for HTS. Also, the small size of the compounds screened in FBLD means a better chance to fully match the interactions with small or transient pockets within the target protein, where these less tractable pockets cannot be accessed with standard classical HTS methods. […] We expect this methodology to be more advantageous than classical HTS methods for expediting the time from hit to lead (H2L) and allows for rapid access to high quality leads with lower attrition rates in subsequent lead optimization (LO) campaigns toward pre-clinical candidate selection. FBLD screening by NMR involves a “consensus binding” approach where several distinct NMR experiments (DLB, STD, CPMG) are applied along with a free-state aggregation detection method (T2-CPMG) to rank the compounds for their affinity to the receptor (HRAS in this case) whilst simultaneously monitoring the solution behavior and critical quality attributes of each compound. The latter helps to eliminate artifact binders which are highly problematic. We performed a fluorine screen involving 461 compounds that were derived from a highly curated fragment library. Moreover, two-dimensional ^15N HSQC NMR was also used to validate ligand-binding sites on the target protein. […]
structure (smiles),measurement,setting,value
"O=C(O)C[C@H](c1ccccc1F)c1c[nH]c2cc(F)ccc12 (single isomer, unassigned) [Compound 11052]",Activity ranking on HRas^G12V (in words),[1],More active
same,19F DLB Score,[2],Non conclusive
"O=C(O)C[C@@H](c1ccccc1F)c1c[nH]c2cc(F)ccc12 (single isomer, unassigned) [Compound 11053]",Activity ranking on HRas^G12V (in words),[1],More active; also recorded: Most active
same,19F DLB Score,[2],2.29
same,19F T2-CPMG Score,[3],25.91
COC(=O)c1ccc(NC(=O)Cc2c[nH]c3cc(F)ccc23)cc1Cl [Compound 10017],Binding to HRas^G12V (in words),[1],low or no binding
CCOC(=O)c1cccc(NC(=O)Cc2c[nH]c3cc(F)ccc23)c1 [Compound 10019],Binding to HRas^G12V (in words),[1],low or no binding
Cc1c(Cl)cc(NC(=O)Cc2c[nH]c3cc(F)ccc23)cc1Cl [Compound 10022],Binding to HRas^G12V (in words),[1],low or no binding
Cc1ccc(NC(=O)Cc2c[nH]c3cc(F)ccc23)cc1Cl [Compound 10032],Binding to HRas^G12V (in words),[1],low or no binding
COc1ccc(NC(=O)Cc2c[nH]c3cc(F)ccc23)cc1OC [Compound 10033],Binding to HRas^G12V (in words),[1],low or no binding
COc1ccccc1C(=O)NCCc1c[nH]c2cc(F)ccc12 [Compound 10043],Binding to HRas^G12V (in words),[1],low or no binding
CCOC(=O)C(Cc1c[nH]c2ccccc12)NC(=O)Cc1c[nH]c2cc(F)ccc12 (stereo not drawn) [Compound 10112],Binding to HRas^G12V (in words),[1],low or no binding
O=C(c1cccc(F)c1)N1CCC(c2c[nH]c3cc(F)ccc23)C1 (stereo not drawn) [Compound 11022],19F DLB Score,[2],3.43
same,19F T2-CPMG Score,[3],5.71
CC(=O)Nc1cccc(C(=O)N2CCC(c3c[nH]c4cc(F)ccc34)C2)c1 (stereo not drawn) [Compound 11023],19F DLB Score,[2],3.07
same,19F T2-CPMG Score,[3],16.39
CC(=O)N1CCC(C(=O)N2CCC(c3c[nH]c4cc(F)ccc34)C2)CC1 (stereo not drawn) [Compound 11024],19F DLB Score,[2],1.89
same,19F T2-CPMG Score,[3],9.57
O=C(C1CCC(O)CC1)N1CCC(c2c[nH]c3cc(F)ccc23)CC1 (stereo not drawn) [Compound 11027],19F DLB Score,[2],2.48
same,19F T2-CPMG Score,[3],13.23
CC(=O)N1CCC(C(=O)N2CCC(c3c[nH]c4cc(F)ccc34)CC2)CC1 [Compound 11029],19F DLB Score,[2],1.93
same,19F T2-CPMG Score,[3],10.24
CN(C)Cc1ccc(NC(=O)C(C#N)c2c[nH]c3cc(F)ccc23)cc1 (stereo not drawn) [Compound 11030],19F DLB Score,[2],2.9
same,19F T2-CPMG Score,[3],21.82
N#CC(C(=O)N[C@@H](Cc1ccc(O)cc1)C(=O)O)c1c[nH]c2cc(F)ccc12 (stereo partly drawn) [Compound 11031],19F DLB Score,[2],1.97
same,19F T2-CPMG Score,[3],38.39
CC1CN(C(=O)C(CC(=O)O)c2c[nH]c3cc(F)ccc23)C1 (stereo not drawn) [Compound 11034],19F DLB Score,[2],1.7
same,19F T2-CPMG Score,[3],39.41
O=C(C1CCNC1)N1CCC(c2c[nH]c3cc(F)ccc23)C1 (stereo not drawn) [Compound 11036],19F DLB Score,[2],1.76
same,19F T2-CPMG Score,[3],19.33
O=C(C1CCCNC1)N1CCC(c2c[nH]c3cc(F)ccc23)C1 (stereo not drawn) [Compound 11037],19F DLB Score,[2],2.12
same,19F T2-CPMG Score,[3],16.77
O=C(O)CC(c1ccccc1F)c1c[nH]c2cc(F)ccc12 (stereo not drawn) [Compound 11044],19F DLB Score,[2],2.77
same,19F T2-CPMG Score,[3],16.24
CCOC(=O)CC(c1ccccc1F)c1c[nH]c2cc(F)ccc12 (stereo not drawn) [Compound 11045],Binding to HRas^G12V (in words),[1],low or no binding
same,19F DLB Score,[2],16.69
O=C(C1CCNCC1)N1CCC(c2c[nH]c3cc(F)ccc23)CC1 [Compound 11047],19F DLB Score,[2],2.79
same,19F T2-CPMG Score,[3],22.81
O=C(O)CC(c1cccc(O)c1)c1c[nH]c2cc(F)ccc12 (stereo not drawn) [Compound 11054],Activity ranking on HRas^G12V (in words),[1],More active
same,19F DLB Score,[2],Non conclusive
O=C(O)CC(c1ccc(O)cc1)c1c[nH]c2cc(F)ccc12 (stereo not drawn) [Compound 11055],Activity ranking on HRas^G12V (in words),[1],More active
same,19F DLB Score,[2],Non conclusive
CC1(C)OC(=O)C(C(c2ccc(F)cc2F)c2c[nH]c3cc(F)ccc23)C(=O)O1 (stereo not drawn) [Compound 11058],Binding to HRas^G12V (in words),[1],low or no binding
same,19F DLB Score,[2],Non conclusive
CN(C)CC(=O)Nc1cccc(NC(=O)Cc2c[nH]c3cccc(Br)c23)c1 [Compound 11067],Binding to HRas^G12V (in words),[1],low or no binding
CN(C)CC(=O)Nc1cccc(NC(=O)Cc2c[nH]c3cc(Cl)ccc23)c1 [Compound 11068],Binding to HRas^G12V (in words),[1],low or no binding
O=C(O)Cc1c[nH]c2c(Cl)cccc12 [Compound 11069],Binding to HRas^G12V (in words),[1],low or no binding
CN(C)CC(=O)Nc1cccc(NC(=O)Cc2c[nH]c3c(Cl)cccc23)c1 [Compound 11070],Binding to HRas^G12V (in words),[1],low or no binding
CN(C)CC(=O)Nc1cccc(NC(=O)Cc2c[nH]c3cccc(Cl)c23)c1 [Compound 11071],Binding to HRas^G12V (in words),[1],low or no binding
CN(C)CCOC1CN(C(=O)Cc2c[nH]c3cc(F)ccc23)C1 [compound 10110],19F DLB Score,[2],2.87
same,19F T2-CPMG Score,[3],25.25
